Patent US9895357B2, “Compositions, methods and kits for reducing lipid levels” (NuSirt Sciences, Inc., priority 2013, dated 2018)

How the values were obtained:
[1] = system: LDL receptor knockout (LDLRKO) mice; assay: Example 7: aortic macrophage infiltration (CD68 positive area) in LDLRKO mice; format: in vivo; conditions: eight weeks
Description: (§1) The mice were provided free access to an atherogenic western diet (WD) containing 0.21% cholesterol (by weight) and 40% calories from fat and water for 4 weeks prior to treatment. […] The treatments were administered for eight weeks continuously.
To assess macrophage infiltration, Sections of aortic sinus were immuno-stained with rat monoclonal antibody against macrophage-specific CD68 (Clone FA11, 1:75, AbD Serotec, Raleigh, N.C.) followed by staining with alkaline phosphatase-conjugated mouse anti-rat (for CD68, 1:50) secondary antibodies (Jackson ImmunoResearch laboratories, West Grove, Pa.). Control slides contain no primary antibody. The CD68-positive areas were analyzed using Image-Pro Plus software (Media Cybemetics, Bethesda, Md.).

[2] = system: LDL receptor knockout (LDLRKO) mice; assay: Example 7: atherosclerotic lesion area and Oil Red O positive area in LDLRKO mice; format: in vivo; conditions: eight weeks
Description: as §1
To assess atherosclerosis, the circulatory system was perfused following euthanasia with phosphate-buffered saline (PBS) before removing the heart and aorta. The upper one-third of the heart was dissected and embedded in Optimal Cutting Temperature Compound (Sakura Tissue-Tek, Torrance, Calif.), frozen, and stored at −80° C. Blocks were serially cut at 8 μm intervals and stained with hematoxylin and 0.5% Oil Red O (Sigma-Aldrich) to evaluate aortic sinus atherosclerotic intimal area. Atherosclerotic lesion area and Oil Red O positive area were quantified using Image-Pro Plus software (Media Cybemetics, Bethesda, Md.). Whole aorta (from sinotubular junction to iliac bifurcate) was dissected and fixed in 10% formalin, and the adventitia was cleaned. Aortas were opened along the longitudinal axis and pinned onto black silicon elastomer (Rubber-Cal, Santa Ana, Calif.) for the quantification of atherosclerotic lesion area. The percentage of total aortic surface covered with atherosclerotic lesions was quantified by Image-Pro Plus software (Media Cybemetics, Bethesda, Md.) and used to determine the total lesion area.

Sirt1 [3] = conditions: 0.5 mM for leucine and 5 μM for HMB; previously shown; cited from earlier work
[4] = system: LDL receptor knockout (LDLRKO) mice; assay: Example 7: plasma total cholesterol, cholesterol esters and triglycerides in LDLRKO mice on western diet; format: in vivo; conditions: four weeks
Description: as §1
Blood samples of the mice in all groups were obtained from tails of the mice at following four and eight weeks of administration. The serum/plasma levels of triglyceride, total cholesterol and cholesterol esters were measured. Following treatment, food was removed for four hours and the animals were euthanized.
Blood was collected into EDTA-coated tubes to analyze plasma lipid and cholesterol profiles. Plasma total cholesterol (TC, Pointe Scientific, Canton, Mich.), free cholesterol (FC, Wako, Richmond, Va.) and triglyceride (TG, Wako, Richmond, Va.) concentrations were measured using enzymatic assays according to manufacturer's instructions. Cholesterol ester (CE) was calculated as the difference between TC and FC.

C. elegans = assay: Lifespan in C. elegans; format: in vivo, Caenorhabditis elegans; conditions: leucine 0.5 mM, nicotinic acid 10 nM; basal conditions
Description: Eggs were hatched on a starved plate overnight. […] To study lifespan, 50 young adult worms were placed on NGM agar plates seeded with E. coli strain OP-50 (=day 1 of study). All treatments were added with the indicated concentrations to E. coli the agar plates. […] The worms were maintained at 20° C. throughout the duration of the study. Worms were transferred to new plates daily to eliminate progeny. […] The study was continued until the last animal was dead. Data were analyzed via Kaplan-Meier survival curves using Prism 6 (GraphPad Software) and statistical significance was determined by the Log-rank (Mantel-Cox) test.

AMPK [5] = conditions: 0.5 mM for leucine and 5 μM for HMB; previously shown; cited from earlier work
[6] = oral dosing of about 3,000 mg; cited from earlier work
AMPK [7] = system: AMPK
Description: 3T3-L1 preadipocytes (American Type Culture Collection) were plated at a density of 8000 cells/cm2 (10 cm2 dish) and grown in Dulbecco's modified eagle's medium (DMEM) containing 10% fetal bovine serum (FBS), and antibiotics (growth medium) at 37° C. in 5% CO2. […] Preadipocytes were maintained in this differentiation medium for 3 days and subsequently cultured in growth medium. Cultures were re-fed every 2-3 days to allow >90% cells to reach fully differentiation before conducting chemical treatment.
Western blotting was performed with antibodies against AMPK and Phospho-AMPKα (Thr172) obtained from Cell Signaling (Danvers, Mass.). […] Total 30 μg of protein from the cell lysate was resolved on 10% Tris/HCL polyacrylamide gels (Criterion precast gel, Bio-Rad Laboratories, Hercules, Calif.), transferred to PVDF membranes, incubated in blocking buffer (3% BSA in TBS), incubated with primary antibody (P-AMPK), washed and incubated with secondary horseradish peroxidase-conjugated antibody.

[8] = system: Patients pre-diagnosed with hyperlipidemia; conditions: NA alone 3000 mg = group (e); NA 50 mg + Leu 1135 mg; groups (a)-(d) as
Description: Patients that are pre-diagnosed with hyperlipidemia are admitted for the randomized and double blind study. […] The treatments are administered orally twice a day, for 60 days continuously.
Blood samples of the patients in all groups are obtained from at day 0, 30 and 60 after the administration. The serum/plasma levels of triglyceride, cholesterol, LDL and HDL are measured. Cutaneous vasodilation is measured by laser-Doppler flowmeter and the discomfort level described by the patients.

Sirt1 [9] = system: Sirt1
Description: C2C12 mouse myoblasts (American Type Culture Collection) were plated at a density of 8000 cells/cm^2 (10 cm^2 dish) and grown in Dulbecco's modified eagle's medium (DMEM) containing 10% fetal bovine serum (FBS), and antibiotics (growth medium) at 37° C. in 5% CO2. For differentiation of C2C12 cells, cells were grown to 100% confluence, transferred to differentiation medium (DMEM with 2% horse serum and 1% penicillin-streptomycin), and fed with fresh differentiation medium every day until myotubes were fully formed (3 days).
Total 35 μg of protein from the cell lysate was resolved on 10% Tris/HCL polyacrylamide gels (Criterion precast gel, Bio-Rad Laboratories, Hercules, Calif.), transferred to PVDF membranes, incubated in blocking buffer (3% BSA in TBS), incubated with primary antibody, washed and incubated with secondary horseradish peroxidase-conjugated antibody.

[10] = system: LDL receptor knockout (LDLRKO) mice; conditions: NA alone 10 g/kg diet = group (e); NA 250 mg + Leu 24 g/kg diet; groups (a)-(d) as
Description: All chemicals are purchased from Sigma.
The serum/plasma levels of triglyceride, cholesterol, LDL and HDL are measured. Cutaneous vasodilation is measured by laser-Doppler flowmeter.

[11] = leucine 24 g/kg diet alone, or with nicotinic acid 50 mg/kg diet, compared with NA 1,000 mg/kg diet
[12] = leucine 24 g/kg diet alone, or with nicotinic acid 50 or 250 mg/kg diet, compared with NA 1,000 mg/kg diet

Row | SMILES | effect on aortic macrophage infiltration [1, 11] | effect on lesion (plaque) area [2, 11] | therapeutic effect on these variables when administered alone (Sirt1 [3]) | effect on plasma cholesterol esters [4, 12] | effect on plasma total cholesterol [4, 12] | effect on lifespan (C. elegans) | therapeutic effect on these variables when administered alone (AMPK [5]) | circulating level of nicotinic acid or nicotinamide riboside [6] | decrease in aortic macrophage infiltration ([1]; nicotinic acid 1,000 mg/kg diet, % CD68 positive area) [%] | decrease in atherosclerotic lesion size ([2]; nicotinic acid 1,000 mg/kg diet, relative to western diet alone) [%] | AMPK activation (P-AMPK/AMPK) (AMPK [7]; differentiated 3T3-L1 adipocytes, 24 hours, nicotinic acid 10 nM, leucine 0.5 mM, resveratrol 200 nM) | concentrations of nicotinic acid alone found to exert no effect (AMPK [7]; dose-response study, 3T3-L1 cells) [nM] | cutaneous vasodilation and patient complaints [8] | decrease in plasma total cholesterol ([4]; nicotinic acid 1,000 mg/kg diet added to western diet, p<0.01) [%] | decrease in plasma cholesterol esters ([4]; nicotinic acid 1,000 mg/kg diet, CE calculated as TC minus FC, p<0.002) [%] | decrease in plasma triglycerides ([4]; nicotinic acid 1,000 mg/kg diet, p<0.01) [%] | effect on Sirt1 levels (Sirt1 [9]; C2C12 myotubes, 24 hours, nicotinic acid 10 nM alone or with 0.5 mM leucine) | concentrations of nicotinic acid alone found to exert no effect (Sirt1 [9]; dose-response study, C2C12 cells) [nM] | cutaneous vasodilation [10]
1 | CC(C)C[C@H](N)C(=O)O [leucine] | significant independent effect on reducing macrophage infiltration | exerted an independent effect on plaque area | no therapeutic effect | no independent effect | no independent effect | no independent effect | no therapeutic effect |  |  |  |  |  |  |  |  |  |  |  | 
2 | NC(=O)c1ccc[n+]([C@@H]2O[C@H](CO)[C@@H](O)[C@H]2O)c1 [nicotinamide riboside] |  |  |  |  |  |  |  | about 10 μM |  |  |  |  |  |  |  |  |  |  | 
3 | O=C(O)c1cccnc1 [nicotinic acid] |  |  |  |  |  | no independent effect |  | about 10 μM | ~50 | ~50 | no significant effect | < 100 | significant higher cutaneous vasodilation and more complaints from the patients | 20 | 28 | 32 | did not have a significant effect | < 100 | significant higher cutaneous vasodilation
